e = 2'-O-(2-methoxyethyl) (MOE); d = 2'-deoxy (DNA)
Tests used:
[1] = test system: Akt and p90Rsk phosphorylation; experiment: Western blot of Akt and p90Rsk phosphorylation; type: cell-based, human; conditions: FIG. 42B
Procedure: YB-1 binds to CLU promoter leading to increased CLU expression after ER stress (Shiota et al., 2011). […]. Western blot analysis is done using phospho Akt, phospho ERK, Akt and ERK antibodies. […]. […] After 48 h treatment, western blot analysis is done using phospho Akt, phospho ERK, phospho mTOR, phospho P70S6K, Akt, ERK, mTOR and P70S6K antibodies.

[2] = test system: clusterin (CLU); experiment: Western blot of clusterin (CLU) expression after AR pathway inhibition; type: cell-based, human
Procedure: The immune complexes were recovered with protein-G sepharose for 2 h and then washed with radioimmunoprecipitation assay buffer (RIPA) at least thrice, centrifuged, and submitted to SDS-PAGE, followed by Western blotting. […] Cells are harvested and performed for western blot analysis.

[3] = humans; cited from earlier work
[4] = test system: CRPC LNCaP xenografts; experiment: Castration-resistant LNCaP xenograft in castrated male athymic nude mice; type: in vivo; conditions: week 16 from start of treatment; euthanasia for tumour volume exceeding 10% of body weight
Procedure: The effects of combination treatment on castration-resistant LNCaP tumor growth were assessed in castrated male athymic nude mice. Male athymic nude mice were inoculated with LNCaP cells in Matrigel in two sites of mouse flank lesion. […]. Custirsen (10 mg/kg/each dose) or SCRB (10 mg/kg/each dose) was injected i.p. once daily for the first week and then three times per week. […] Tumor volume was measured once per week. Serum PSA was determined weekly. PSA doubling time (PSAdt) and velocity were calculated by the log-slope method (PSAt−PSAinitial×e^mt). All animal procedures were performed according to the guidelines of the Canadian Council on Animal Care and appropriate institutional certification.
Male athymic mice (Harlan Sprague-Dawley, Inc.) were injected s.c. with 1×10^6 LNCaP cells. When tumors grow in 150 mm^3 and serum PSA was >50 ng/ml, mice are castrated. […] Each experimental group consisted of 13 mice. […] Tumor volume and serum PSA was measured as previously described (Sowery et al., 2008). All animal procedures were performed according to the guidelines of the Canadian Council on Animal Care. Each three mice xenografts were sacrificed at 7 days after start treatment and the rest were harvested the end of the study and snap-frozen in liquid nitrogen. […]

[5] = test system: LNCaP cells; experiment: Autophagy induction; type: cell-based, human
[6] = test system: GRP78, ATF4, IRE1, CHOP and cleaved-ATF6; experiment: ER stress marker expression after AR1; type: cell-based; conditions: concomitant with CLU induction
Excerpt: ER stress activates a complex intracellular signaling pathway, called the unfolded protein response (UPR), which is tailored to re-establish protein homeostasis (proteostasis) by inhibiting protein translation and promoting ER-associated protein degradation via the ubiquitin-proteasome system (UPS).

[7] = test system: LNCaP cells; experiment: Flow cytometry of apoptotic sub-G1 fraction (propidium iodide staining); type: cell-based, human; conditions: 500 nmol/L custirsen or ScrB, 10 μmol/L AR1, 48 hrs
Procedure: After a time course exposure, cell growth was measured by crystal violet assay as previously described (cleave et al., 2005). Detection and quantitation of apoptotic cell cycle population were analyzed by flow-cytometry (Beckman Coulter Epics Elite; Beckman, Inc.) based on 2N and 4N DNA content as previously described (Lamoureux et al., 2011). For CSS condition, LNCaP cells were plated in RPMI with 5% FBS switched to CSS at the next day, and treatment was started same as FBS condition. Each assay was done in triplicate three times.
Combination treatment enhances LNCaP apoptosis in flow cytometry analysis. […] The proportion of cells in sub-G0, G0-G1, S, G2-M is determined by propidium iodide staining. […] P value represents between treatment arms and their respective controls *p<0.05, **p<0.01, ***p<0.001 (Wilcoxon matched-pairs test).

[8] = test system: AR transcriptional activity; experiment: PSA-luciferase reporter assay of R1881 induced AR transcriptional activity; type: cell-based, human; conditions: LNCaP cells; 500 nmol/L custirsen, 10 μmol/L AR1, 1 nmol/L R1881
Procedure: Effect of combination treatment on AR transactivation and translocation. […] Cells were harvested, and luciferase activity was determined. Columns represent means of at least three independent experiments done in triplicate. PSA activation was normalized Renilla-luciferase activity.
LNCaP cells were seeded at a density of 5×10^4 in 12-well plates and transfected the following day with custirsen or SCRB. […] Reporter assays were normalized to Renilla and luciferase activity expressed by Firefly to Renilla ratio in arbitrary light units. All experiments were carried out in triplicate wells and repeated five times using different preparations of plasmids.
The effects of combination treatment on androgen-induced, AR-mediated gene activation were evaluated.

[9] = test system: CRPC; conditions: combined with docetaxel chemotherapy; cited from earlier work
[10] = biological target: T1, AR (Homo sapiens, UniProt P10275, T878A); experiment: Western blot of AR protein expression; conditions: FIG. 17: LNCaP, 500 nM custirsen 48 h, then 10 μM AR1 48 hours
T1 sequence (P10275 1-920 T878A): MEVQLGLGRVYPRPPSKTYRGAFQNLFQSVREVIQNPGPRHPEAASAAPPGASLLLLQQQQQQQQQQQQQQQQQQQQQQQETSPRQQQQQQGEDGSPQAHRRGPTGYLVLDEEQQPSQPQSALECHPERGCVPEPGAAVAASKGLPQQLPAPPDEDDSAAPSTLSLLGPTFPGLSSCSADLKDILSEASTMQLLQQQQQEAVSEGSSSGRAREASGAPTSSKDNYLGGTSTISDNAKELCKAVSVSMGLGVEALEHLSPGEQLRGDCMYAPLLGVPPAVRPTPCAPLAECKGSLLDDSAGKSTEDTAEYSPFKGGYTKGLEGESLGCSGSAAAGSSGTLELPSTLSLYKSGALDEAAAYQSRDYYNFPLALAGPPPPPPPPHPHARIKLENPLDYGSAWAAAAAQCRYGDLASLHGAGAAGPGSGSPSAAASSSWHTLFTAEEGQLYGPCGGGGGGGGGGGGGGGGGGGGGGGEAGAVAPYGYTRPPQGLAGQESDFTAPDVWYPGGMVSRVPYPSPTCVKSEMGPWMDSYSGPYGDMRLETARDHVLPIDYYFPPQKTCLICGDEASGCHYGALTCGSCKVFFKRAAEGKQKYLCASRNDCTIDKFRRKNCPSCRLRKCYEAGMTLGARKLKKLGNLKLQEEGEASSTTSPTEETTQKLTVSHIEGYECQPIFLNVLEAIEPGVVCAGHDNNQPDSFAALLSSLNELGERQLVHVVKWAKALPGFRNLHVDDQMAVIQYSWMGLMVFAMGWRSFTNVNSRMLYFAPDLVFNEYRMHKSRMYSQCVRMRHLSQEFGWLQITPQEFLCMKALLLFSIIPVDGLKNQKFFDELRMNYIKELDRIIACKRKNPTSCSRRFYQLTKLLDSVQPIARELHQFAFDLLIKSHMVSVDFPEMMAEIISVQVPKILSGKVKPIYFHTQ
Procedure: Cells (1×10^6) were seeded in 10 cm dishes with RPMI medium containing 5% FBS. The next day, cells were transfected with 500 nM custirsen or control for 48 h.
AR expression is detected by western blot. […] “OTR” means cells treated with oligofectamime only.

Q: Which “Akt and p90Rsk phosphorylation” value [1] does the source give for `CNC(=O)c1ccc(N2C(=S)N(c3ccc(C#N)c(C(F)(F)F)c3)C(=O)C2(C)C)cc1F` [AR1, 4-(3-(4-cyano-3-(trifluoromethyl)phenyl)-5,5-dimethyl-4-oxo-2-thioxoimidazolidin-1-yl)-2-fluoro-N-methylbenzamide] here?
A: increases

Q: And the clusterin protein expression ([2]; LNCaP, 10 μmol/L for 48 hrs, 5% FBS or 5% CSS, western blot)?
A: strongly increases

Q: And the maximum tolerated dose [3]?
A: 240 mg/day

Q: What about the side effects [3] of the same molecule?
A: fatigue

Q: And the overall survival [4]?
A: about 40%

Q: What about the autophagy [5] of the same molecule?
A: induces autophagy

Q: And the ER stress markers [6]?
A: up-regulation

Q: With `CC(=O)O[C@@H]1[C@@H](OC(C)=O)[C@@H](O)[C@H](Oc2c(-c3ccc(O)cc3)oc3cc(O)cc(O)c3c2=O)O[C@H]1C` [SL101] as the molecule, how does the “effect on AR1 induced up-regulation of CLU” value ([2]; inhibitor added with AR1) read?
A: abrogates

Q: With “ScrB: scrambled antisense oligonucleotide control, 5′-CAGCGCTGACAACAGTTTCAT-3′ (SEQ ID NO: 44) (2'-O-methoxyethyl modified control oligonucleotide, pattern not given here, further chemistry not given here)” as the molecule, how does the “apoptosis (sub-G1 fraction)” value [7] read?
A: 15.2%

Q: For “custirsen: antisense oligonucleotide reducing clusterin expression, CAGCAGCAGAGTCTTCATCAT (Seq. ID No.: 3), phosphorothioate backbone, 2′-O-methoxyethyl at nucleotides 1-4 and 18-21 (sugars from the 5' end e4 d13 e4, all phosphorothioate, methylation of C not given here; listed as Homo sapiens)”, which “reduction of R1881 induced AR transcriptional activity (PSA luciferase transactivation)” value [8] is on record?
A: 90%

Q: And the “apoptosis (sub-G1 fraction)” value [7]?
A: 20%

Q: And the HR [9]?
A: 0.50

Q: What about the “gain in overall survival” value [9] of the same molecule?
A: 7 month

Q: What about the reduced death rate [9] of the same molecule?
A: 50%

Q: What about the “reduction of AR protein expression” value [10] of the same molecule?
A: no effect

From patent US20140088178A1, “COMBINATION OF ANTI-CLUSTERIN OLIGONUCLEOTIDE WITH ANDROGEN RECEPTOR ANTAGONIST FOR THE TREATMENT OF PROSTATE CANCER” (THE UNIVERSITY OF BRITISH COLUMBIA, priority 2011, published 2014)
